Data from ChEMBL document CHEMBL1201862, “PubChem BioAssay data set” (2004).
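Briefly, cells in 96-well plates were exposed to five compound concentrations for 48 h, and endpoints were estimated by linear interpolation. Here, GI50 denotes the concentration required for 50% inhibition of growth.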 Calls of active or inactive are those of the source. No stated cut-off is given here; in the data, active = GI50 up to about 1.1 µM and inactive = higher.

Assays:
Assay in all cases: NCI tumour cell line growth inhibition, 48 h
TK-10 = tested on: TK-10
UACC-257 = tested on: UACC-257
SK-OV-3 = tested on: SK-OV-3
SR = tested on: SR
M19-MEL = tested on: M19-MEL
A549 = tested on: A549
OVCAR-5 = tested on: OVCAR-5
LOX IMVI = tested on: LOX IMVI
SK-MEL-2 = tested on: SK-MEL-2
K562 = tested on: K562
HT-29 = tested on: HT-29
OVCAR-3 = tested on: OVCAR-3
OVCAR-4 = tested on: OVCAR-4
OVCAR-8 = tested on: OVCAR-8
SNB-78 = tested on: SNB-78
RXF 393 = tested on: RXF 393
MCF7 = tested on: MCF7
BT-549 = tested on: BT-549
MDA-MB-231 = tested on: MDA-MB-231
MDA-N = tested on: MDA-N

Structure (SMILES)	GI50 (TK-10)	GI50 (UACC-257)	GI50 (SK-OV-3)	GI50 (SR)	GI50 (M19-MEL)	GI50 (A549)	GI50 (OVCAR-5)	GI50 (LOX IMVI)	GI50 (SK-MEL-2)	GI50 (K562)	GI50 (HT-29)	GI50 (OVCAR-3)	GI50 (OVCAR-4)	GI50 (OVCAR-8)	GI50 (SNB-78)	GI50 (RXF 393)	GI50 (MCF7)	GI50 (BT-549)	GI50 (MDA-MB-231)	GI50 (MDA-N)
CC1=Nc2c(ccc3c2C(=O)c2ccccc2C3=O)NC(c2cccc3c2CCC3)C1 (stereo not given)	> 100 µM (inactive)	> 100 µM (inactive)	> 31 µM (inactive)	11 µM (inactive)	> 43.4 µM (inactive)	> 100 µM (inactive)	> 100 µM (inactive)	24.2 µM (inactive)	> 80.9 µM (inactive)	21.4 µM (inactive)	> 100 µM (inactive)	> 90.4 µM (inactive)	> 100 µM (inactive)	> 100 µM (inactive)	> 100 µM (inactive)	> 100 µM (inactive)				
N#C/N=C(\NCCc1c[nH]c2ccccc12)NCc1ccccc1	98.4 µM (inactive)	37 µM (inactive)	> 100 µM (inactive)	32.5 µM (inactive)	81.3 µM (inactive)	60.5 µM (inactive)	> 100 µM (inactive)	75.9 µM (inactive)		42.8 µM (inactive)	37.8 µM (inactive)	42.8 µM (inactive)	61.4 µM (inactive)	> 100 µM (inactive)	> 100 µM (inactive)	> 100 µM (inactive)				
CCCCCCCC(CC(=O)NC(CO)C(=O)NC(CO)CC(C)C)OC(=O)CC(CCCCCCC)OC(=O)CC(CCCCCCC)OC1OC(C)C(O)C(OC2OC(C)C(O)C(O)C2O)C1O (stereo not given)	16.5 µM (inactive)	12.3 µM (inactive)	17.6 µM (inactive)	3.05 µM (inactive)	10.4 µM (inactive)	15.8 µM (inactive)	13.1 µM (inactive)	5.28 µM (inactive)	3.76 µM (inactive)	5.12 µM (inactive)	9.16 µM (inactive)	13.9 µM (inactive)	12.6 µM (inactive)	16.3 µM (inactive)	20.2 µM (inactive)	13.7 µM (inactive)	0.614 µM (active)	14.5 µM (inactive)	13.2 µM (inactive)	6.92 µM (inactive)
CS(=O)(=O)Nc1ccc(Nc2c3ccccc3nc3ccccc23)cc1	2.57 µM (inactive)	1.36 µM (inactive)	1.89 µM (inactive)	0.0789 µM (active)	2.32 µM (inactive)	0.325 µM (active)	4.39 µM (inactive)	1.26 µM (inactive)	5.16 µM (inactive)	2.23 µM (inactive)	4.4 µM (inactive)	4.93 µM (inactive)	4.17 µM (inactive)	2.77 µM (inactive)	7.83 µM (inactive)	5.73 µM (inactive)	1.07 µM (active)	11 µM (inactive)	3.56 µM (inactive)	5.94 µM (inactive)
CCOc1ccc(/C=C(\Cl)c2ccc(OC)cc2)cc1		> 100 µM (inactive)	> 100 µM (inactive)	> 100 µM (inactive)	> 100 µM (inactive)	> 100 µM (inactive)				> 100 µM (inactive)	> 100 µM (inactive)		> 100 µM (inactive)	> 100 µM (inactive)	> 100 µM (inactive)	> 100 µM (inactive)				
Cn1cnc([N+](=O)[O-])c1Sc1nccn1-c1ccccc1	> 100 µM (inactive)	37.6 µM (inactive)	> 100 µM (inactive)	21.2 µM (inactive)	51.8 µM (inactive)	> 100 µM (inactive)	> 100 µM (inactive)	16.8 µM (inactive)	21.4 µM (inactive)	52.4 µM (inactive)	61.1 µM (inactive)	50.5 µM (inactive)	44.6 µM (inactive)	43.1 µM (inactive)	26.3 µM (inactive)					
CCCC(OCC)(OCC)OCC	> 100 µM (inactive)	> 100 µM (inactive)	> 100 µM (inactive)	> 100 µM (inactive)	> 100 µM (inactive)	> 100 µM (inactive)	> 100 µM (inactive)	48.8 µM (inactive)	> 100 µM (inactive)	> 100 µM (inactive)	> 100 µM (inactive)	> 100 µM (inactive)	> 100 µM (inactive)	> 100 µM (inactive)	> 100 µM (inactive)	> 100 µM (inactive)				
NC(=S)NNC(=O)/C(=C/c1ccc(/C=C(\NC(=O)c2ccccc2)C(=O)NNC(N)=S)cc1)NC(=O)c1ccccc1	> 100 µM (inactive)	> 100 µM (inactive)	> 100 µM (inactive)	26.1 µM (inactive)	72.8 µM (inactive)	> 100 µM (inactive)	> 100 µM (inactive)	34.1 µM (inactive)	> 100 µM (inactive)	19.1 µM (inactive)	> 100 µM (inactive)	> 100 µM (inactive)	97.5 µM (inactive)	64 µM (inactive)	53.3 µM (inactive)	> 75 µM (inactive)				
CN(C)C(=S)/N=c1\ss/c(=N/c2ccccc2)n1C	> 100 µM (inactive)	> 100 µM (inactive)	32.4 µM (inactive)	> 100 µM (inactive)	> 100 µM (inactive)	59.2 µM (inactive)	> 100 µM (inactive)	> 100 µM (inactive)	> 100 µM (inactive)	> 100 µM (inactive)	> 100 µM (inactive)		50.6 µM (inactive)	73.6 µM (inactive)	32.4 µM (inactive)	28.2 µM (inactive)				
Clc1cc(Cc2cc(Cl)c(Cl)c3c2OCOC3)c2c(c1Cl)COCO2	29.9 µM (inactive)	94 µM (inactive)	23.3 µM (inactive)	55.2 µM (inactive)	82.8 µM (inactive)	40.9 µM (inactive)	> 100 µM (inactive)	53.1 µM (inactive)	55.5 µM (inactive)	43.9 µM (inactive)	> 100 µM (inactive)	25.3 µM (inactive)	18.7 µM (inactive)	36.8 µM (inactive)	45.1 µM (inactive)	31.7 µM (inactive)				
CC(=O)Oc1cc(C)c2c(c1OC(C)=O)CC1(O2)[C@@H](C)CCC2[C@@]3(C)CC[C@H](OC(C)=O)C(C)(C)C3CC[C@]21C (stereo not given in full)	3.61 µM (inactive)	5.97 µM (inactive)	5.36 µM (inactive)	3.03 µM (inactive)	2.02 µM (inactive)	5.3 µM (inactive)	5.46 µM (inactive)	4.24 µM (inactive)			5.43 µM (inactive)	2.72 µM (inactive)	> 10 µM (inactive)	3.01 µM (inactive)	2.24 µM (inactive)	1.26 µM (inactive)				
C[C@]12C=CC(=O)C=C1CC[C@H]1[C@@H]3C[C@@H](O)[C@](O)(C(=O)CO)[C@@]3(C)C[C@H](O)[C@@]12F [TRIAMCINOLONE]	> 100 µM (inactive)	> 100 µM (inactive)	> 100 µM (inactive)	> 100 µM (inactive)	> 100 µM (inactive)	> 100 µM (inactive)	> 100 µM (inactive)	> 100 µM (inactive)	> 100 µM (inactive)	> 100 µM (inactive)	> 100 µM (inactive)	> 100 µM (inactive)	> 100 µM (inactive)	> 100 µM (inactive)	> 100 µM (inactive)	> 100 µM (inactive)				
CCC(C)C(N)C(=O)NC(CC(N)=O)C(=O)NC(CC(C)C)C(=O)NC(CCCCN)C(=O)NC(C)C(=O)NC(CC(C)C)C(=O)NC(C)C(=O)NC(C)C(=O)NC(CC(C)C)C(=O)NC(C)C(=O)NC(CCCCN)C(=O)NC(CCCCN)C(=O)NC(C(=O)NC(CC(C)C)C(N)=O)C(C)CC (stereo not given)	14.2 µM (inactive)	14.2 µM (inactive)	18.7 µM (inactive)	19 µM (inactive)	10.1 µM (inactive)	9.93 µM (inactive)	14.6 µM (inactive)	18.3 µM (inactive)	19.4 µM (inactive)	14.7 µM (inactive)	19.5 µM (inactive)	8 µM (inactive)	15.3 µM (inactive)	17.5 µM (inactive)	11.3 µM (inactive)	8.61 µM (inactive)				
C=CCOc1cc2c(cc1C(C)c1ccc(OC)cc1)OCO2 (stereo not given)	7.41 µM (inactive)	0.263 µM (active)	0.311 µM (active)	0.299 µM (active)	0.718 µM (active)	0.869 µM (active)	12.2 µM (inactive)	0.598 µM (active)	16.6 µM (inactive)	0.39 µM (active)	0.286 µM (active)	0.429 µM (active)	> 100 µM (inactive)	0.624 µM (active)	1.46 µM (inactive)	0.091 µM (active)	0.453 µM (active)		11.5 µM (inactive)	0.337 µM (active)
COC(=O)C(CC(=O)Nc1ccc(C)cc1)C(=O)C(=O)Nc1ccccc1C(C)C (stereo not given)	> 100 µM (inactive)	> 100 µM (inactive)	> 100 µM (inactive)	> 100 µM (inactive)	> 100 µM (inactive)	> 100 µM (inactive)	> 100 µM (inactive)	> 100 µM (inactive)	> 100 µM (inactive)	> 100 µM (inactive)	> 100 µM (inactive)	> 100 µM (inactive)	> 100 µM (inactive)	> 100 µM (inactive)	> 100 µM (inactive)	> 100 µM (inactive)				
COc1ccc(-c2cc(-c3cc(C)ccc3O)nc(O)n2)cc1	40.8 µM (inactive)	> 100 µM (inactive)	44.4 µM (inactive)	> 100 µM (inactive)	> 100 µM (inactive)	> 100 µM (inactive)		> 100 µM (inactive)		> 100 µM (inactive)	> 100 µM (inactive)	> 100 µM (inactive)	> 100 µM (inactive)	74.8 µM (inactive)	43.7 µM (inactive)	32.6 µM (inactive)				
